Test results published in patent US7332489B2, “Methods and compositions of novel triazine compounds” (Reddy US Therapeutics, Inc., priority 2003, dated 2008).
Counter-ions that a name gives are not always drawn. Like-named read-outs stand apart in the source and are kept apart here.

Key:
TNF-α induced IL-6 = assay: TNF-α-induced IL-6 production determined by IL-6 ELISA; assay type: cell-based; conditions: for activity at 10 µM / inhibition at 10 µM: Homo sapiens; for % IL6 production compare to TNF stimulation of IL6 (100%), HAEC, IL6, @ 5 uM: compound 5 uM (bracketed value); for % IL6 production compare to TNF stimulation of IL6 (100%), Compds tested @ 10 μM HAEC, IL6: Table 7, 10 μM compound; for Inflammation Data (result in words): concentration not given
Experimental: Human aortic endothelial cells (HAEC, Clonetics) were cultured according to manufacturer in growth medium (Clonetics): basal medium containing human epidermal growth factor, hydrocortisone, vascular endothelial growth factor, heparin binding growth factor-B, long R3-insulin-like growth factor-1, ascorbic acid, gentamicin/amphotericin and 5% FBS. These cell were allowed to reach at least 90% confluency before subjected to experimental treatments. […] Tumor necrosis factor α was from R&D Systems.
All treatments, compound-added and controls were carried out in serum free media containing 0.2% albumin. Media from all conditions were collected and used for IL-6 ELISA.
IL-6 ELISA was carried out using human IL-6 DuoSet ELISA development kit as described by manufacturer (R&D Systems). Mouse anti-human Il-6 was used as the capture antibody (2 ug/ml) and biotinylated goat anti-human IL-6 (200 ng/ml) was used as the detection antibody. Culture media were incubated with capture antibody (in 96 well) for 2 h at room temperature. Wells were washed three times with wash buffer (0.05% tween-20 in phosphate buffered saline (PBS) pH 7.4) followed by incubation with detection antibody for 2 h at room temperature. Following three washes wells were incubated with Streptavidin-HRP for 20 min. Color development was read at 450 nm in a Microplate reader.

[1] = system: Human aortic smooth muscle cells; assay: Smooth muscle cell proliferation assay / anti-proliferation assay (perlecan); conditions: for activity in anti-proliferation assay (Perlecan), in words: using the same activity scale used in Table 3
Experimental: Human aortic smooth muscle cells (Clonetics) were used. Cells were grown in basal medium containing 5% fetal bovine serum supplemented with growth factors, basic fibroblast growth factor, epidermal growth factor and insulin. […] The cells were then serum starved for 24 h to induce quiescence. Fresh growth medium containing no compound or 10 μM compound was then added and further incubated for 24 h. Cell number was determined by using a cell proliferation assay kit (Celltiter96 AQueous from Promega).

[2] = 24 h, read-out: Inhibition of TNF-induced IL6 production
[3] = 24 h, Table 5, first part, class = % of control IL6 production, read-out: Inhibition of TNF-induced IL6 production
[4] = 24 h, Table 5, second part, column 1, class = % of control IL6 production, read-out: Inhibition of TNF-induced IL6, production
[5] = 10 uM compound, TNF stimulation = 100%
[6] = 24 h, read-out: Inhibition of TNF-induced IL6 production, Table 7, first part
[7] = 24 h, read-out: Inhibition of TNF-induced IL6 production, Table 7, second part, column 1
[8] = 24 h, Table 7, first part, read-out: Inhibition of TNF-induced IL6 production

CCN1CCCC1CNc1nc(Nc2ccc(OC)c(F)c2)nc(NC2CCCCCC2)n1 (stereo not drawn) [Compound 95, N^2-cycloheptyl-N^4-[(1-ethyl-2-pyrrolidinyl)methyl]-N^6-(3-fluoro-4-methoxyphenyl)-1,3,5-triazine-2,4,6-triamine]
activity at 10 µM (TNF-α induced IL-6; 24 h, read-out: Inhibition of TNF-induced IL6, production): 0 to 25% | activity at 10 µM (TNF-α induced IL-6; [2]): 0 to 25%

COc1ccc(Nc2nc(NCCN3CCCCC3)nc(NC3CCCCCC3)n2)cc1F [Compound 96, N^2-cycloheptyl-N^4-(3-fluoro-4-methoxyphenyl)-N^6-[2-(1-piperidinyl)ethyl]-1,3,5-triazine-2,4,6-triamine]
activity at 10 µM (TNF-α induced IL-6; [3]): 0 to 25%

COc1ccc(Nc2nc(NCCCN3CCCC3=O)nc(NC3CCCCCC3)n2)cc1F [Compound 99, 1-[3-({4-(cycloheptylamino)-6-[(3-fluoro-4-methoxyphenyl)amino]-1,3,5-triazin-2-yl}amino)propyl]-2-pyrrolidinone]
activity at 10 µM (TNF-α induced IL-6; [3]): 25 to 50% | activity at 10 µM (TNF-α induced IL-6; [4]): 0 to 25%

COc1ccc(Nc2nc(NCCCn3ccnc3)nc(NC3CCCCCC3)n2)cc1F [Compound 100, N^2-cycloheptyl-N^4-(3-fluoro-4-methoxyphenyl)-N^6-[3-(1H-imidazol-1-yl)propyl]-1,3,5-triazine-2,4,6-triamine]
activity at 10 µM (TNF-α induced IL-6; [4]): 0 to 25%

COc1ccc(Nc2nc(NCCCCCO)nc(N(C)C3CCN(C)CC3)n2)cc1Cl [Compound 108, 5-{4-(3-Chloro-4-methoxy-phenylamino)-6-[methyl-(1-methyl-piperidin-4-yl)-amino]-[1,3,5]triazin-2-ylamino}-pentan-1-ol]
activity at 10 µM (TNF-α induced IL-6; 24 h, read-out: % IL6 production compare to TNF stimulation of IL6 (100%), Compds tested @ 10 uM HAEC, IL6): 25% | activity at 10 µM (TNF-α induced IL-6; [2]): 25 to 50%

COc1ccc(Nc2nc(NC3CCCCCC3)nc(N(C)C3CCN(C)CC3)n2)cc1Br [Compound 123, N-(3-Bromo-4-methoxy-phenyl)-N′-cycloheptyl-N″-methyl-N″-(1-methyl-piperidin-4-yl)-[1,3,5]triazine-2,4,6-triamine]
IC50 ([1]; Homo sapiens, read-out: Activity (note 1), anti-proliferation assay (perlecan)): > 7 µM

COc1ccc(Nc2nc(Cl)nc(NC3CCCCCC3)n2)cc1F [Compound 127, 6-Chloro-N-cycloheheptyl-N′-(3-fluoro-4-methoxy-phenyl)-[1,3,5]triazine-2,4-diamine]
activity at 10 µM (TNF-α induced IL-6; [3]): 25 to 50%

CCN1CCC[C@H]1CNc1nc(NCC2CCCCC2)nc(Nc2ccc(OC)c(F)c2)n1 [Compound 141, N^2-cyclohexylmethyl-N^4-((S)-1-ethyl-pyrrolidin-2-ylmethyl)-N^6-(3-fluoro-4-methoxyphenyl)-1,3,5-triazine-2,4,6-triamine]
% IL6 production compare to TNF stimulation of IL6 (100%), Compds tested @ 10 uM HAEC, IL6 (TNF-α induced IL-6; [5]): 23.44% | activity at 10 µM (TNF-α induced IL-6; [3]): 0 to 25%

CCN1CCC[C@@H]1CNc1nc(NCC2CCCCC2)nc(Nc2ccc(OC)c(F)c2)n1 [Compound 142, N^2-cyclohexylmethyl-N^4-((R)-1-ethyl-pyrrolidin-2-ylmethyl)-N^6-(3-fluoro-4-methoxyphenyl)-1,3,5-triazine-2,4,6-triamine]
% IL6 production compare to TNF stimulation of IL6 (100%), Compds tested @ 10 uM HAEC, IL6 (TNF-α induced IL-6; [5]): 21.62% | activity at 10 µM (TNF-α induced IL-6; [3]): 0 to 25%

CCN1CCC[C@H]1CNc1nc(NC2CCCCCC2)nc(N(CC#N)c2ccccc2)n1 [Compound 143, ({4-cycloheptylamino-6-[((S)-1-ethyl-pyrrolidin-2-ylmethyl)-amino]-1,3,5-triazin-2-yl}-phenyl-amino)-acetonitrile]
% IL6 production compare to TNF stimulation of IL6 (100%), Compds tested @ 10 uM HAEC, IL6 (TNF-α induced IL-6; [5]): 18.88% | activity at 10 µM (TNF-α induced IL-6; [3]): 0 to 25%

CCN1CCC[C@@H]1CNc1nc(NC2CCCCCC2)nc(N(CC#N)c2ccccc2)n1 [Compound 144, ({4-cycloheptylamino-6-[((R)-1-ethyl-pyrrolidin-2-ylmethyl)-amino]-1,3,5-triazin-2-yl}-phenyl-amino)-acetonitrile]
activity at 10 µM (TNF-α induced IL-6; [3]): 0 to 25%

COc1ccc(Nc2nc(NC3CC3)nc(NC3CC3)n2)cc1F [Compound 157, N,N′-dicyclopropyl-N″-(3-fluoro-4-methoxy-phenyl)-1,3,5-triazine-2,4,6-triamine]
% IL6 production compare to TNF stimulation of IL6 (100%), Compds tested @ 10 uM HAEC, IL6 (TNF-α induced IL-6; [5]): 60.48% | activity at 10 µM (TNF-α induced IL-6; [3]): 50 to 75%

COc1ccc(Nc2nc(NC3CCCCCC3)nc(N(C)C3CCN(C)CC3)n2)cc1F [Compound 168, N^2-cycloheptyl-N^4-(3-fluoro-4-methoxy-phenyl)-N^6-methyl-N^6-(1-methyl-piperidin-4-yl)-1,3,5-triazine-2,4,6-triamine citrate salt]
% IL6 production compare to TNF stimulation of IL6 (100%), HAEC, IL6, @ 5 uM (TNF-α induced IL-6; TNF stimulated, citrate salt): 40% | % IL6 production compare to TNF stimulation of IL6 (100%), Compds tested @ 10 uM HAEC, IL6 (TNF-α induced IL-6; TNF stimulated, compound 10 uM): total cell death

COc1ccc(Nc2nc(NC3CCCCCC3)nc(N(C)C3CCN(C)CC3)n2)cc1F [Compound 169, N^2-cycloheptyl-N^4-(3-fluoro-4-methoxy-phenyl)-N^6-methyl-N^6-(1-methyl-piperidin-4-yl)-1,3,5-triazine-2,4,6-triamine succinate salt]
% IL6 production compare to TNF stimulation of IL6 (100%), HAEC, IL6, @ 5 uM (TNF-α induced IL-6; TNF stimulated, succinate salt): 45%

COc1ccc(Nc2nc(NC3CCCCCC3)nc(N(C)C3CCN(C)CC3)n2)cc1F [Compound 171, N-Cycloheptyl-N′-(3-fluoro-4-methoxy-phenyl)-N″-methyl-N″-(1-methyl-piperidin-4-yl)-[1,3,5]tri-azine-2,4,6-triamine]
inhibition at 10 µM (TNF-α induced IL-6; [6]): 85 to 100% | inhibition at 10 µM (TNF-α induced IL-6; [7]): 65 to 85% | % IL6 production compare to TNF stimulation of IL6 (100%), Compds tested @ 10 μM HAEC, IL6 (TNF-α induced IL-6; TNF stimulation = 100%): 21%

CN1CCC(N(C)c2nc(Nc3ccc4ccccc4c3)nc(NC3CCCCCC3)n2)CC1 [Compound 172, N-Cycloheptyl-N′-methyl-N′-(1-methyl-piperidin-4-yl)-N″-naphthalen-2-yl-[1,3,5]tri-azine-2,4,6-triamine]
inhibition at 10 µM (TNF-α induced IL-6; [6]): 85 to 100% | inhibition at 10 µM (TNF-α induced IL-6; [7]): 65 to 85% | % IL6 production compare to TNF stimulation of IL6 (100%), Compds tested @ 10 μM HAEC, IL6 (TNF-α induced IL-6; TNF stimulation = 100%): 18%

COc1ccc(Nc2nc(N3CCOCC3)nc(N3CCN(Cc4ccccc4)CC3)n2)cc1 [Compound 173, [4-(4-Benzyl-piperazin-1-yl)-6-morpholin-4-yl-[1,3,5]tri-azin-2-yl]-(4-methoxy-phenyl)-amine]
inhibition at 10 µM (TNF-α induced IL-6; [8]): 65 to 85%

c1ccc2cc(Nc3nc(NC4CCCCCC4)nc(N4CCOCC4)n3)ccc2c1 [Compound 174, N-Cycloheptyl-6-morpholin-4-yl-N′-naph-thalen-2-yl-[1,3,5]triazine-2,4-diamine]
inhibition at 10 µM (TNF-α induced IL-6; [8]): 85 to 100%

COc1ccc(Nc2nc(NC3CCCCCC3)nc(N3CCOCC3)n2)cc1F [Compound 175, N-Cycloheptyl-N′-(3-fluoro-4-methoxy-phenyl)-6-morpholin-4-yl-[1,3,5]triazine-2,4-di-amine]
inhibition at 10 µM (TNF-α induced IL-6; [8]): 85 to 100%

c1ccc(Nc2nc(NC3CCCCCC3)nc(N3CCOCC3)n2)cc1 [Compound 176, N-Cycloheptyl-6-morpholin-4-yl-N′-phenyl-[1,3,5]tri-azine-2,4-diamine]
inhibition at 10 µM (TNF-α induced IL-6; [8]): 85 to 100%

COc1ccc(Nc2nc(NC3CCCCCC3)nc(N3CCOCC3)n2)cc1 [Compound 177, N-Cycloheptyl-N′-(4-methoxy-phenyl)-6-mor-pholin-4-yl-[1,3,5]triazine-2,4-diamine]
inhibition at 10 µM (TNF-α induced IL-6; [8]): 85 to 100% | inhibition at 10 µM (TNF-α induced IL-6; 24 h, Table 7, second part, column 1, read-out: Inhibition of TNF-induced IL6 production): 65 to 85%

COc1ccc(Nc2nc(NC3CCCCCC3)nc(N(C)Cc3ccccc3)n2)cc1 [Compound 178, N-Benzyl-N′-cycloheptyl-N″-(4-methoxy-phenyl)-N-methyl-[1,3,5]triazine-2,4,6-tri-amine]
inhibition at 10 µM (TNF-α induced IL-6; [8]): 65 to 85%

CN1CCC(N(C)c2nc(NCCC3OCCO3)nc(Nc3ccc4ccccc4c3)n2)CC1 [Compound 179, N-(2-[1,3]Dioxolan-2-yl-ethyl)-N′-methyl-N′-(1-meth-yl-piperidin-4-yl)-N″-naphthalen-2-yl-[1,3,5]tri-azine-2,4,6-triamine]
inhibition at 10 µM (TNF-α induced IL-6; [6]): 65 to 85% | inhibition at 10 µM (TNF-α induced IL-6; [7]): 50 to 65%

COc1ccc(Nc2nc(NC3CCCCCC3)nc(N(C)C3CCN(C)CC3)n2)cc1F [N^2-cycloheptyl-N^4-(3-fluoro-4-methoxyphenyl)-N^6-methyl-N^6-(1-methyl-piperidin-4-yl)-1,3,5-triazine-2,4,6-triamine]
activity in anti-proliferation assay (Perlecan), in words [1]: medium or moderate activity

CN1CCC(N(C)c2nc(Nc3ccc4ccccc4c3)nc(NC3CCCCCC3)n2)CC1 [N^2-cycloheptyl-N^4-methyl-N^4-(1-methyl-piperidin-4-yl)-N^6-naphthalen-2-yl-1,3,5-triazine-2,4,6-triamine]
activity in anti-proliferation assay (Perlecan), in words [1]: high activity

COc1ccc(Nc2nc(NC3CCCCCC3)nc(OC(C)C)n2)cc1Cl [drawing 1598]
inhibition at 10 µM (TNF-α induced IL-6; 10 uM, read-out: Inflammation Data, inhibition at 10 uM): < 25%

COc1ccc(Nc2nc(NC3CCCCCC3)nc(N3CCSCC3)n2)cc1Cl [drawing 1604]
Inflammation Data (result in words) (TNF-α induced IL-6): Not Active

COc1ccc(Nc2nc(NC3CCCCCC3)nc(Oc3ccccc3F)n2)cc1Cl [drawing 1605]
Inflammation Data (result in words) (TNF-α induced IL-6): Not Active
